3 compounds from patent US10231954B2, “Neurodegenerative therapies” (LYTIX BIOPHARMA AS, priority 2014, dated 2019) can be followed below.

What all share (type): biochemical
One experiment deals with T1, PDK1 (Homo sapiens, UniProt O15530).
T1 sequence (O15530 1-556): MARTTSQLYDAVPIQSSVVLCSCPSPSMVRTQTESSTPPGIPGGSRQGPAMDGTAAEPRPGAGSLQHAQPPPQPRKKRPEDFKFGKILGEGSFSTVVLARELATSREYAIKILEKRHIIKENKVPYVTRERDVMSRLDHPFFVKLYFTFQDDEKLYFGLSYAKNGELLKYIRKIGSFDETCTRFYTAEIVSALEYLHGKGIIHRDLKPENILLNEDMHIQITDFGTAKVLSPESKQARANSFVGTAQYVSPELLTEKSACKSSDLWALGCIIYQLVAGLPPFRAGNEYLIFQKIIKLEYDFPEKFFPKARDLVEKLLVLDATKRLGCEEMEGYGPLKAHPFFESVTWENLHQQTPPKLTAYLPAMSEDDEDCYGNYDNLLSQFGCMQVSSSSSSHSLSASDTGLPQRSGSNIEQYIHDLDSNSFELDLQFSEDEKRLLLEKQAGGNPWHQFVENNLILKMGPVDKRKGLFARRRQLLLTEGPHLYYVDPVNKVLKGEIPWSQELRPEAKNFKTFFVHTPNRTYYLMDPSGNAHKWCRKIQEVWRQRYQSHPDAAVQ
In words: Kinase profiling PDK1. Conditions: 100 micromolar inhibitor concentration, 100 is no change. The text has this: (§1) Any value less that 25 is considered to be highly significant inhibition.

A further experiment concerns the target RIPK2 (Homo sapiens, UniProt O43353). Description: Kinase profiling RIPK2. The settings on record: 100 micromolar inhibitor concentration, 100 is no change.
From the text: as §1

The target of the next experiment is Lck (Homo sapiens, UniProt P06239). Description: Kinase profiling Lck. The settings on record: 100 micromolar inhibitor concentration, 100 is no change.
From the text: as §1

The target in a further experiment is PLK1 (Homo sapiens, UniProt P53350). Description: Kinase profiling PLK1. The settings on record: 100 micromolar inhibitor concentration, 100 is no change.
Sequence of PLK1 (P53350 whole entry, species assumed): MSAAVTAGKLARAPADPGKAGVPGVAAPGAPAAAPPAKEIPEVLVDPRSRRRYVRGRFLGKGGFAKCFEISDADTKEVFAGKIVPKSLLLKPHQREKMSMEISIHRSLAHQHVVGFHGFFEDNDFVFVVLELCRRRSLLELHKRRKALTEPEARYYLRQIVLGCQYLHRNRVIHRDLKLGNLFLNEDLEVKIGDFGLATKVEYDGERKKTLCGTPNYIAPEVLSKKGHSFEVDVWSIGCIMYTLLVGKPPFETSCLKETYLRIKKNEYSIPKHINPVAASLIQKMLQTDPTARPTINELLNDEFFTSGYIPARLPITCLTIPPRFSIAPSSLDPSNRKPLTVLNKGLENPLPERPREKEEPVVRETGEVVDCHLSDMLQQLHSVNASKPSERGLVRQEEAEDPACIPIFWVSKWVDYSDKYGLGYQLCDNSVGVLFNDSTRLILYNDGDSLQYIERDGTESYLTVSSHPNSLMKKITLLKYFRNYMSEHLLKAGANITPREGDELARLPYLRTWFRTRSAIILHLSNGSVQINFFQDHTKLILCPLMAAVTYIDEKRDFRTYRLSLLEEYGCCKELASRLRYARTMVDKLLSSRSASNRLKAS
From the text: as §1

The target in another experiment is p38b MAPK (Homo sapiens, UniProt Q15759). Description: Kinase profiling p38b MAPK. Conditions: 100 micromolar inhibitor concentration, 100 is no change.
Sequence of p38b MAPK (Q15759 whole entry): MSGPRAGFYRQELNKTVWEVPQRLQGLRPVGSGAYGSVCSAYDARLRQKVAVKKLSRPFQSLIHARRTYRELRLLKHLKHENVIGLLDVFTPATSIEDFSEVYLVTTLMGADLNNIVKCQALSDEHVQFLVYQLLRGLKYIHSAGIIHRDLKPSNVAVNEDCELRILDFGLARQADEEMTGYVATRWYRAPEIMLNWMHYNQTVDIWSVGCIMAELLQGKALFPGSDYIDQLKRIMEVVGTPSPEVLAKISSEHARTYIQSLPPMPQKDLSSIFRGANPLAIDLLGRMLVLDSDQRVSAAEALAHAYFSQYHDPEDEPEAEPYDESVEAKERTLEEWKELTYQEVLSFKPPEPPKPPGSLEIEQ
From the text: as §1

A further experiment deals with MARK3 (Homo sapiens, UniProt P27448). In words: Kinase profiling MARK3. The settings on record: 100 micromolar inhibitor concentration, 100 is no change.
From the text: as §1

The target in a further experiment is RSK2 (Homo sapiens, UniProt P51812). In words: Kinase profiling RSK2. Conditions: 100 micromolar inhibitor concentration, 100 is no change.
Sequence of RSK2 (P51812 whole entry, species assumed): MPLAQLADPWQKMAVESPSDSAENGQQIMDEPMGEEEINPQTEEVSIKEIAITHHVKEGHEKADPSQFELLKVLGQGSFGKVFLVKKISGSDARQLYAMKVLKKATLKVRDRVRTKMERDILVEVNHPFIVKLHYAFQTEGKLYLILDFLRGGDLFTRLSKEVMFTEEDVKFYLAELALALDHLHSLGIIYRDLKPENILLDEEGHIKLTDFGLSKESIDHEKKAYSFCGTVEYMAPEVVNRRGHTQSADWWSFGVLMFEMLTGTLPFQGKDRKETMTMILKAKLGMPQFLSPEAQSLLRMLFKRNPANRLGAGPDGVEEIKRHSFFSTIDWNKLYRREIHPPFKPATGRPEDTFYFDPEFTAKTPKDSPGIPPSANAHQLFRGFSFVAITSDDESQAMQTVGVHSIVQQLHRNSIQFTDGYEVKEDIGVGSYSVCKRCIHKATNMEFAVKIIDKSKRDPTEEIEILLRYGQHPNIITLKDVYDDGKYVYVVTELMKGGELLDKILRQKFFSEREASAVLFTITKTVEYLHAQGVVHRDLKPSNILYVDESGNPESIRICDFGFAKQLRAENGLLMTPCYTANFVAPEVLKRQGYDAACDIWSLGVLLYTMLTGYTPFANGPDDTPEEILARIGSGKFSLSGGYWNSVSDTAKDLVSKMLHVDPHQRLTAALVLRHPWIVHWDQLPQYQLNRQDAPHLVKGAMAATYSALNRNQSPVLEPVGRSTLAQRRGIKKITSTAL
From the text: as §1

Another experiment addresses PKA (Homo sapiens, UniProt P17612). In words: Kinase profiling PKA. The settings on record: 100 micromolar inhibitor concentration, 100 is no change.
From the text: as §1

Another experiment has as its target DYRK1A (Homo sapiens, UniProt Q13627). Description: DYRK 1A assay (kinase profiling). Conditions: 100 micromolar inhibitor concentration, 100 is no change. On the procedure:
Assays are stopped by addition of 5 μl of 0.5 M (3%) orthophosphoric acid and then harvested onto P81 Unifilter plates with a wash buffer of 50 mM orthophosphoric acid.
as §1

The target in another experiment is JAK2 (Homo sapiens, UniProt O60674). In words: Kinase profiling JAK2. The settings on record: 100 micromolar inhibitor concentration, 100 is no change.
From the text: as §1

The target of a further experiment is MSK1 (Homo sapiens, UniProt O75582). In words: Kinase profiling MSK1. Conditions: 100 micromolar inhibitor concentration, 100 is no change.
Sequence of MSK1 (O75582 whole entry, species assumed): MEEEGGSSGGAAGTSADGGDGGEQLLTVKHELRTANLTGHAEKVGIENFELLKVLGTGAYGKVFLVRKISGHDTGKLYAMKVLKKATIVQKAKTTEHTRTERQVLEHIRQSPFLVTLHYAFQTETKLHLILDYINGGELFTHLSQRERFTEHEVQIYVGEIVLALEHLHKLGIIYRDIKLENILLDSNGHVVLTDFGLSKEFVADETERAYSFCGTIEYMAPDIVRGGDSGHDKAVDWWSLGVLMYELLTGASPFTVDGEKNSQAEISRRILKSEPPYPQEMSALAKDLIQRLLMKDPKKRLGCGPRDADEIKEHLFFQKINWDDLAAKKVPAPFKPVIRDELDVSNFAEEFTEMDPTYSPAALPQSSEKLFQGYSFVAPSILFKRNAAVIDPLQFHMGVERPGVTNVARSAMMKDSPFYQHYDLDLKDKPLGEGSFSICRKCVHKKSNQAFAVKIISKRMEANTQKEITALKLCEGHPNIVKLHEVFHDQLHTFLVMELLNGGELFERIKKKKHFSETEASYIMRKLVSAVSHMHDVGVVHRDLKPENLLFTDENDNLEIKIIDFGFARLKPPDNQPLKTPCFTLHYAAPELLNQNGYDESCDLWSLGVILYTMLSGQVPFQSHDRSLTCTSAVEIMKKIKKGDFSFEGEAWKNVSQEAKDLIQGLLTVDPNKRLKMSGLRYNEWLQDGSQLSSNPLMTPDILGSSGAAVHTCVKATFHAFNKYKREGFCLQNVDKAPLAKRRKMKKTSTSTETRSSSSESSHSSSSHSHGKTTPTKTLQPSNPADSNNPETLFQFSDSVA
From the text: as §1

The next experiment addresses CHK2 (Homo sapiens, UniProt O96017). Description: Kinase profiling CHK2. Conditions: 100 micromolar inhibitor concentration, 100 is no change.
From the text: as §1

The target of a further experiment is EF2K (Homo sapiens, UniProt O00418). In words: Kinase profiling EF2K. The settings on record: 100 micromolar inhibitor concentration, 100 is no change.
From the text: as §1

The target of another experiment is BTK (Homo sapiens, UniProt Q06187). In words: Kinase profiling BTK. Conditions: 100 micromolar inhibitor concentration, 100 is no change.
From the text: as §1

The target of another experiment is T2, TBK1 (Homo sapiens, UniProt Q9UHD2).
T2 sequence (Q9UHD2 1-729): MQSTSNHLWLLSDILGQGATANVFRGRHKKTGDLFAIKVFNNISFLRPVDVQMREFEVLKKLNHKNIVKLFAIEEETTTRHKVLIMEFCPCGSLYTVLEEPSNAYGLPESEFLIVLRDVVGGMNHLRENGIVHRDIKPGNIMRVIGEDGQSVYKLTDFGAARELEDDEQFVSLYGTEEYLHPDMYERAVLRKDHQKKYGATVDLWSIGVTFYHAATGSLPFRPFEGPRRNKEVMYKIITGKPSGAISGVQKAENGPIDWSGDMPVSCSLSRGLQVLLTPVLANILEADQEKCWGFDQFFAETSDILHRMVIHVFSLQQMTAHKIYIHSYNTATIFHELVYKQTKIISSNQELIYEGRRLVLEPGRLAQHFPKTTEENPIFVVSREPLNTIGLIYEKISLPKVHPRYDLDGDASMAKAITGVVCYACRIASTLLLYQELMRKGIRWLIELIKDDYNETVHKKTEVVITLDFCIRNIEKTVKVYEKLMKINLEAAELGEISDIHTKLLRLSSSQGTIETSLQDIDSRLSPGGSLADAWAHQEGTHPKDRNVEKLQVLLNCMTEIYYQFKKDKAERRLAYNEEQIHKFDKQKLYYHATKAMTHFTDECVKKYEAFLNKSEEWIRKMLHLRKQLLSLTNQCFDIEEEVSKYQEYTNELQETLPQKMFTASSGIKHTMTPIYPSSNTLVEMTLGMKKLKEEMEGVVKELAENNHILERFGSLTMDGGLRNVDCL
Description: Kinase profiling TBK1. The settings on record: 100 micromolar inhibitor concentration, 100 is no change.
From the text: as §1

The target of a further experiment is EPH-A2 (Homo sapiens, UniProt P29317). In words: Kinase profiling EPH-A2. Conditions: 100 micromolar inhibitor concentration, 100 is no change.
From the text: as §1

For the next experiment, the target named is PKCa (Homo sapiens, UniProt P17252). Description: Kinase profiling PKCa. The settings on record: 100 micromolar inhibitor concentration, 100 is no change.
From the text: as §1

For another experiment, the target named is PAK4 (Homo sapiens, UniProt O96013). Description: Kinase profiling PAK4. The settings on record: 100 micromolar inhibitor concentration, 100 is no change.
Sequence of PAK4 (O96013 whole entry, species assumed): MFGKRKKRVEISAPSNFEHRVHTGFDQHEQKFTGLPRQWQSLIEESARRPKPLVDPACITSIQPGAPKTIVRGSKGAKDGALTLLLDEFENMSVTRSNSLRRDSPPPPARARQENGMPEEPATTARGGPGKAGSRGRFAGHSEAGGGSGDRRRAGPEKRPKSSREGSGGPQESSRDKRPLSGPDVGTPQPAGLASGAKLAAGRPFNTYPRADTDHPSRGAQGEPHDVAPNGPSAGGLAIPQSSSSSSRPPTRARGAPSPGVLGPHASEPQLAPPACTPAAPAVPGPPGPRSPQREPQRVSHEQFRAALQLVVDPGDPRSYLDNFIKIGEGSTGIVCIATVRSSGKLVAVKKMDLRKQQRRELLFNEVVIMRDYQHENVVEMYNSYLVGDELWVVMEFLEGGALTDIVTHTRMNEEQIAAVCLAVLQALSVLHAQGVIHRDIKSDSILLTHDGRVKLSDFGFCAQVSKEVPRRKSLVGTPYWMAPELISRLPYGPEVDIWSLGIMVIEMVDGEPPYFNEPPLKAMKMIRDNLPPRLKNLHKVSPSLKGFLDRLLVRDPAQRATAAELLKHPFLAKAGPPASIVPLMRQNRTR
From the text: as §1

The target of the next experiment is PKBa (Homo sapiens, UniProt P31749). In words: Kinase profiling PKBa. Conditions: for residual kinase activity, PKBa: 100 micromolar inhibitor concentration, 100 is no change.
Sequence of PKBa (P31749 whole entry): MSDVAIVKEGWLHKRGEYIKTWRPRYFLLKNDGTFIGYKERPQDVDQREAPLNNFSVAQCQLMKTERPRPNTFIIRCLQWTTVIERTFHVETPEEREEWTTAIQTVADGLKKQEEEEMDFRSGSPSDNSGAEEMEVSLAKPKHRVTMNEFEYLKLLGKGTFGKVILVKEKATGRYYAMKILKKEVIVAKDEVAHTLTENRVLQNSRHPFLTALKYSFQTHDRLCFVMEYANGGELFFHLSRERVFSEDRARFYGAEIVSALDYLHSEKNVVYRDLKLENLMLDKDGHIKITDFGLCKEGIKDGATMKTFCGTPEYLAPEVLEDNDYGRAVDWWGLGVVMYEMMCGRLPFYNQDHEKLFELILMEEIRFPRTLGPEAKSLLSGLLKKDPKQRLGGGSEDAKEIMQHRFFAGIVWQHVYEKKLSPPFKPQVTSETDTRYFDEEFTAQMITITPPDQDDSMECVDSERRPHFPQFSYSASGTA
From the text: as §1

For another experiment, the target named is CAMKKb (Homo sapiens, UniProt Q96RR4). In words: Kinase profiling CAMKKb. The settings on record: 100 micromolar inhibitor concentration, 100 is no change.
From the text: as §1

In another experiment the target is MKK1 (Homo sapiens, UniProt Q02750). Description: Kinase profiling MKK1. The settings on record: 100 micromolar inhibitor concentration, 100 is no change.
Sequence of MKK1 (Q02750 whole entry, species assumed): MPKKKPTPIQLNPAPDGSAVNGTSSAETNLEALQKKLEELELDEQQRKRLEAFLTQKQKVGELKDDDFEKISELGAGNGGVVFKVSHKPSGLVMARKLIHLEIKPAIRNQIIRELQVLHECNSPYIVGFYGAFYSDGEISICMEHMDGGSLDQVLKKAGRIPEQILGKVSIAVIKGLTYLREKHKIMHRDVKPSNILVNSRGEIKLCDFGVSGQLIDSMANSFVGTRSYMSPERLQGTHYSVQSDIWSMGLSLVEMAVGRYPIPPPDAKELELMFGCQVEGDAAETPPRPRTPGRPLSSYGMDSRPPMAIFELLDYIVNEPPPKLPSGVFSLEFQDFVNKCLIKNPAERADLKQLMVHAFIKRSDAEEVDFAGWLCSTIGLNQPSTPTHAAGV
From the text: as §1

The next experiment deals with PIM1 (Homo sapiens, UniProt P11309). In words: Kinase profiling PIM1. Conditions: 100 micromolar inhibitor concentration, 100 is no change.
Sequence of PIM1 (P11309 whole entry, species assumed): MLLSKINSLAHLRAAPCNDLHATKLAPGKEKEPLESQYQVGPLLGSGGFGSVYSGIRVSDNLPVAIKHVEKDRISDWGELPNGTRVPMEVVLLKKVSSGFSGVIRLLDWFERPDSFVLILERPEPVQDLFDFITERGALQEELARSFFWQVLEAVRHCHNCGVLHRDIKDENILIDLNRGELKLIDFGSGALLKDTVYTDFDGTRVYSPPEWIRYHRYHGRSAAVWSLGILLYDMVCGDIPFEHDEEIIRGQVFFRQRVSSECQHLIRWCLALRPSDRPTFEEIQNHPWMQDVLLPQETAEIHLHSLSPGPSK
From the text: as §1

The target in a further experiment is p38a MAPK (Homo sapiens, UniProt Q16539). In words: Kinase profiling p38a MAPK. Conditions: 100 micromolar inhibitor concentration, 100 is no change.
From the text: as §1

A further experiment has as its target SYK (Homo sapiens, UniProt P43405). In words: Kinase profiling SYK. Conditions: 100 micromolar inhibitor concentration, 100 is no change.
From the text: as §1

As for `O=C(Nc1nc2ccc(O)cc2s1)c1ccccc1` [Compound 03-60], on PDK1, the “residual kinase activity, PDK1” value was determined as 98. Also, on RIPK2, the “residual kinase activity, RIPK2” value is on record as 12. Besides, on Lck, the “residual kinase activity, Lck” value is given as 92. Moreover, at PLK1, the “residual kinase activity, PLK1” value came out at 74. Further, the “residual kinase activity, p38b MAPK” value on p38b MAPK stood at 76. Also, the “residual kinase activity, MARK3” value at MARK3 is 33. Also, at RSK2, the “residual kinase activity, RSK2” value amounted to 34. At PKA, the “residual kinase activity, PKA” value stood at 97. Moreover, the “residual kinase activity, DYRK1A” value at DYRK1A is reported as 2. The “residual kinase activity, JAK2” value at JAK2 turned out to be 36. For the same compound, the “residual kinase activity, MSK1” value at MSK1 is 31. In addition, on CHK2, the “residual kinase activity, CHK2” value is recorded as 5. For the same compound, on EF2K, the “residual kinase activity, EF2K” value is on record as 107. The “residual kinase activity, BTK” value on BTK was determined as 59. For the same compound, on TBK1, the “residual kinase activity, TBK1” value turned out to be 36. Besides, the “residual kinase activity, EPH-A2” value at EPH-A2 was 77. Moreover, the “residual kinase activity, PKCa” value on PKCa stood at 97. Moreover, at PAK4, the “residual kinase activity, PAK4” value came out at 35. The “residual kinase activity, PKBa” value at PKBa is on record as 79. Also, the “residual kinase activity, CAMKKb” value at CAMKKb is given as 37. For the same compound, the “residual kinase activity, MKK1” value at MKK1 is 49. In addition, the “residual kinase activity, PIM1” value at PIM1 stood at 35. Moreover, the “residual kinase activity, p38a MAPK” value on p38a MAPK turned out to be 74. For the same compound, the “residual kinase activity, SYK” value on SYK amounted to 64.

With `CC(=O)Nc1nc2cc(C(F)(F)F)ccc2s1` [Compound 03-73], the remaining activity at 100 µM on PDK1 (read-out: residual kinase activity, PDK1) was determined as 105%; on RIPK2 (read-out: residual kinase activity, RIPK2) it was 48%; at Lck (read-out: residual kinase activity, Lck) it was 101%; at PLK1 (read-out: residual kinase activity, PLK1), 91%; on p38b MAPK (read-out: residual kinase activity, p38b MAPK) it was 97%; on MARK3 (read-out: residual kinase activity, MARK3), 63%. Further, the remaining activity at 100 µM on RSK2 (read-out: residual kinase activity, RSK2) stood at 83%; at PKA (read-out: residual kinase activity, PKA), 124%; at DYRK1A (read-out: residual kinase activity, DYRK1A) it was 22%; at JAK2 (read-out: residual kinase activity, JAK2) it was 96%; at MSK1 (read-out: residual kinase activity, MSK1) it was 91%; at CHK2 (read-out: residual kinase activity, CHK2), 78%. The remaining activity at 100 µM is 109% on EF2K (read-out: residual kinase activity, EF2K); 93% at BTK (read-out: residual kinase activity, BTK); 64% at TBK1 (read-out: residual kinase activity, TBK1); 99% on EPH-A2 (read-out: residual kinase activity, EPH-A2); 111% at PKCa (read-out: residual kinase activity, PKCa); 71% on PAK4 (read-out: residual kinase activity, PAK4). Moreover, the remaining activity at 100 µM at PKBa (read-out: residual kinase activity, PKBa) is 106%; at CAMKKb (read-out: residual kinase activity, CAMKKb) it was 65%; on MKK1 (read-out: residual kinase activity, MKK1) it was 96%; on PIM1 (read-out: residual kinase activity, PIM1), 10%; on p38a MAPK (read-out: residual kinase activity, p38a MAPK) it was 92%; at SYK (read-out: residual kinase activity, SYK), 74%.

Turning to `CC(=O)Nc1nc2cc(C)ccc2s1` [Compound 03-76], the “residual kinase activity, PDK1” value at PDK1 worked out at 93. Further, the “residual kinase activity, RIPK2” value at RIPK2 amounted to 60. For the same compound, the “residual kinase activity, Lck” value on Lck turned out to be 120. Further, the “residual kinase activity, PLK1” value on PLK1 is 90. On p38b MAPK, the “residual kinase activity, p38b MAPK” value was found to be 83. The “residual kinase activity, MARK3” value at MARK3 is 71. The “residual kinase activity, RSK2” value on RSK2 is given as 96. In addition, on PKA, the “residual kinase activity, PKA” value is 105. The “residual kinase activity, DYRK1A” value on DYRK1A is listed as 23. Also, at JAK2, the “residual kinase activity, JAK2” value is 51. The “residual kinase activity, MSK1” value on MSK1 is 84. Moreover, the “residual kinase activity, CHK2” value on CHK2 is reported as 65. Moreover, the “residual kinase activity, EF2K” value at EF2K worked out at 110. Further, on BTK, the “residual kinase activity, BTK” value was found to be 92. In addition, the “residual kinase activity, TBK1” value at TBK1 is recorded as 78. The “residual kinase activity, EPH-A2” value on EPH-A2 amounted to 93. The “residual kinase activity, PKCa” value at PKCa is 94. In addition, the “residual kinase activity, PAK4” value at PAK4 worked out at 101. In addition, at PKBa, the “residual kinase activity, PKBa” value is on record as 104. The “residual kinase activity, CAMKKb” value on CAMKKb is 71. The “residual kinase activity, MKK1” value at MKK1 was 73. Also, the “residual kinase activity, PIM1” value on PIM1 is on record as 21. On p38a MAPK, the “residual kinase activity, p38a MAPK” value is on record as 92. Besides, the “residual kinase activity, SYK” value at SYK is 72.
